Earlier results, collected in patent US7479499B2 (Celgene Corporation, priority 2000, dated 2009).

Key:
[1] = system: metastatic colorectal cancer patients
[2] = system: patients with metastatic colorectal cancer; conditions: irinotecan monotherapy
[3] = second line treatment of colorectal cancer after 5FU

Row | Expected (%) Grade 1-4 Abdominal colic/pain ([2]; abdominal colic/pain, grade 1-4) | Expected (%) Grade 3-4 Abdominal colic/pain ([2]; abdominal colic/pain, grade 3-4) | Expected (%) Grade 1-4 Asthenia ([2]; asthenia, grade 1-4) | Expected (%) Grade 3-4 Asthenia ([2]; asthenia, grade 3-4) | Expected (%) Grade 1-4 Constipation ([2]; constipation, grade 1-4) | Expected (%) Grade 3-4 Constipation ([2]; constipation, grade 3-4) | Expected (%) Grade 1-4 Diarrhea (Late) ([2]; late diarrhea, grade 1-4) | Expected (%) Grade 3-4 Diarrhea (Late) ([2]; late diarrhea, grade 3-4) | Expected (%) Grade 1-4 Nausea ([2]; nausea, grade 1-4) | Expected (%) Grade 1-4 Vomiting ([2]; vomiting, grade 1-4) | Expected (%) Grade 3-4 Vomiting ([2]; vomiting, grade 3-4) | debilitating (Grade 3-4) late onset diarrhea, share of patients ([1]; late onset: more than 24 hours after administration) | early onset diarrhea, frequency ([1]; within 24 hours of drug administration) | SMILES | complete responses ([1]; metastatic colorectal cancer) | partial responses, share of patients ([1]; metastatic colorectal cancer) | complete response rate [1, 3] | median duration of response [1, 3] | overall response rates [1, 3]
1 |  |  |  |  |  |  |  |  |  |  |  |  |  | O=c1[nH]cc(F)c(=O)[nH]1 [5FU, 5-fluorouracil] | extremely rare | less than 25% |  |  | 
2 | 23.7% | 2.3% | 75.7% | 12.2% | 29.9% | 2.0% | 87.8% | 30.6% | 86.2% | 66.8% | 12.5% | 30-40% | uncommon | CCc1c2c(nc3ccc(OC(=O)N4CCC(N5CCCCC5)CC4)cc13)-c1cc3c(c(=O)n1C2)COC(=O)[C@]3(O)CC [Irinotecan, (4S)-4,11-diethyl-4-hydroxy-9-[(4-piperidino-piperidino)carbonyl-oxy]1H-pyranol-[3′,4′:6,7]indolizinol[1,2-b]quinoline-3,14-(4H,12H)dione] |  |  | less than one percent | 6.4 months | less than 20%
